Test results reported in patent publication US6962930B1, “Compounds, compositions and method suitable for amelioration of withdrawal syndromes and withdrawal-induced brain damage” (Lohocla Research Corporation, priority 1997, dated 2005).

Tests used:
[1] = molecular target: T1, strychnine-insensitive glycine binding site on the NMDA receptor (Rattus norvegicus, UniProt P35439); assay: [3H]5,7-DCKA binding to rat cortical membranes; conditions: 20 nM [3H]5,7-DCKA
T1 construct: from tissue; host or cells: rat cerebral cortex, crude synaptic (buffy coat) membranes
Protocol: Male Sprague-Dawley rats were killed, their brains removed, and their cerebral cortices dissected and binding of [^3H]5,7-dichlorokynurenate ([^3H]5,7-DCKA) assayed. [^3H]5,7-DCKA binding assays were performed in crude synaptic membranes prepared by a modification of the method of Jones, et al., J. Pharmacol. Methods, 21 161–168 (1989) the relevant disclosures of which are incorporated herein by reference. The pelleted “buffy coat”fraction was obtained by centrifugation and frozen at about −80° C. for at least 18 hours. On the day that the binding assays were performed, the pelleted membranes were resuspended in 50 mM HEPES-KOH buffer (pH 7.8) containing 0.08% TRITON® X-100. After stirring for about 30 min at about 4° C., the membranes were pelleted by recentrifugation and then washed twice by resuspension in buffer and centrifugation.
Binding assays were performed in 0.5 ml volume using 150–200 μg of tissue, 20 nM [^3H]5,7-DCKA and 3–300 μM DCUKA or MeO-DCUKA or 1–100 μM DCUK-OMe (all concentrations are final concentrations in 0.6% dimethyl sulfoxide (DMSO)). Incubations were performed for about 45 min at about 4° C. followed by termination by centrifugation. Bound radioactivity was quantitated by liquid scintillation spectroscopy. Non-specific binding was defined with 1 mM glycine.

[2] = molecular target: voltage-sensitive sodium channels; assay: [3H]BTX binding to rat cortical synaptosomes; conditions: non-depolarizing conditions, none = no displacement at 100 μM, read-out: IC50 (μM) [3H]BTX binding
[3] = molecular target: T2, NMDA receptor ion channel (Rattus norvegicus, UniProt P35439); assay: [3H]dizocilpine binding to rat cortical membranes; conditions: no exogenous glycine; 100 or 300 μM DCUKA, 30 or 100 μM DCUK-OMe; attenuated by 1 μM glycine
T2 construct: from tissue; host or cells: rat cerebral cortex, crude synaptic (buffy coat) membranes
Protocol: [^3H]Dizocilpine (MK-801) binding assays were performed in a volume of 1 ml containing 100–150 μg of tissue, 5 nM [^3H]dizocilpine, 10 μM L-glutamate, 30 μM MgSO4, and 100 or 300 μM DCUKA or 30 or 100 μM DCUK-OMe, in 10 mM HEPES-KOH buffer (pH 7.4 at 23° C.). Incubations were for 30 minutes at room temperature. The reaction mixtures were filtered over GF/B filters presoaked in 0.1% polyethyleneimine. Bound radioactivity was quantitated by liquid scintillation spectroscopy. Non-specific binding was defined with 20 μM dizocilpine. Under these conditions, [^3H]dizocilpine binding can be used as a measure of the activation of the NMDA receptor ion channel by glycine. See, for example, Wong, E. H. F., et al.,“ GLYCINE MODULATES [^3H]MK-801BINDING TO THE NMDA RECEPTOR IN RAT BRAIN.” Eur. J. Pharmacol., 142 487–488 (1987).
The results obtained are plotted in FIG. 2 where open bars indicate no glycine added and hatched bars indicate 1 μM glycine added to the incubation. Data were statistically analyzed by 2-way analysis of variance (ANOVA) followed by Tukey test. In FIG. 2, * denotes P<0.05 compared to the zero concentration of DCUKA or DCUK-OMe within a given glycine condition, while ** denotes P<0.05 compared to the 0 glycine condition at a given concentration of DCUKA or DCUK-OMe. […]

RSM (μl) sodium channels = molecular target: T3, RSM (μl) sodium channels (Rattus norvegicus, UniProt P15390); assay: Sodium currents, whole cell patch clamp in CHO cells; type: cell-based; conditions: held at −100 mV, successive depolarizations
T3 construct: expressed in transfected cells
T3 sequence (P15390 whole entry): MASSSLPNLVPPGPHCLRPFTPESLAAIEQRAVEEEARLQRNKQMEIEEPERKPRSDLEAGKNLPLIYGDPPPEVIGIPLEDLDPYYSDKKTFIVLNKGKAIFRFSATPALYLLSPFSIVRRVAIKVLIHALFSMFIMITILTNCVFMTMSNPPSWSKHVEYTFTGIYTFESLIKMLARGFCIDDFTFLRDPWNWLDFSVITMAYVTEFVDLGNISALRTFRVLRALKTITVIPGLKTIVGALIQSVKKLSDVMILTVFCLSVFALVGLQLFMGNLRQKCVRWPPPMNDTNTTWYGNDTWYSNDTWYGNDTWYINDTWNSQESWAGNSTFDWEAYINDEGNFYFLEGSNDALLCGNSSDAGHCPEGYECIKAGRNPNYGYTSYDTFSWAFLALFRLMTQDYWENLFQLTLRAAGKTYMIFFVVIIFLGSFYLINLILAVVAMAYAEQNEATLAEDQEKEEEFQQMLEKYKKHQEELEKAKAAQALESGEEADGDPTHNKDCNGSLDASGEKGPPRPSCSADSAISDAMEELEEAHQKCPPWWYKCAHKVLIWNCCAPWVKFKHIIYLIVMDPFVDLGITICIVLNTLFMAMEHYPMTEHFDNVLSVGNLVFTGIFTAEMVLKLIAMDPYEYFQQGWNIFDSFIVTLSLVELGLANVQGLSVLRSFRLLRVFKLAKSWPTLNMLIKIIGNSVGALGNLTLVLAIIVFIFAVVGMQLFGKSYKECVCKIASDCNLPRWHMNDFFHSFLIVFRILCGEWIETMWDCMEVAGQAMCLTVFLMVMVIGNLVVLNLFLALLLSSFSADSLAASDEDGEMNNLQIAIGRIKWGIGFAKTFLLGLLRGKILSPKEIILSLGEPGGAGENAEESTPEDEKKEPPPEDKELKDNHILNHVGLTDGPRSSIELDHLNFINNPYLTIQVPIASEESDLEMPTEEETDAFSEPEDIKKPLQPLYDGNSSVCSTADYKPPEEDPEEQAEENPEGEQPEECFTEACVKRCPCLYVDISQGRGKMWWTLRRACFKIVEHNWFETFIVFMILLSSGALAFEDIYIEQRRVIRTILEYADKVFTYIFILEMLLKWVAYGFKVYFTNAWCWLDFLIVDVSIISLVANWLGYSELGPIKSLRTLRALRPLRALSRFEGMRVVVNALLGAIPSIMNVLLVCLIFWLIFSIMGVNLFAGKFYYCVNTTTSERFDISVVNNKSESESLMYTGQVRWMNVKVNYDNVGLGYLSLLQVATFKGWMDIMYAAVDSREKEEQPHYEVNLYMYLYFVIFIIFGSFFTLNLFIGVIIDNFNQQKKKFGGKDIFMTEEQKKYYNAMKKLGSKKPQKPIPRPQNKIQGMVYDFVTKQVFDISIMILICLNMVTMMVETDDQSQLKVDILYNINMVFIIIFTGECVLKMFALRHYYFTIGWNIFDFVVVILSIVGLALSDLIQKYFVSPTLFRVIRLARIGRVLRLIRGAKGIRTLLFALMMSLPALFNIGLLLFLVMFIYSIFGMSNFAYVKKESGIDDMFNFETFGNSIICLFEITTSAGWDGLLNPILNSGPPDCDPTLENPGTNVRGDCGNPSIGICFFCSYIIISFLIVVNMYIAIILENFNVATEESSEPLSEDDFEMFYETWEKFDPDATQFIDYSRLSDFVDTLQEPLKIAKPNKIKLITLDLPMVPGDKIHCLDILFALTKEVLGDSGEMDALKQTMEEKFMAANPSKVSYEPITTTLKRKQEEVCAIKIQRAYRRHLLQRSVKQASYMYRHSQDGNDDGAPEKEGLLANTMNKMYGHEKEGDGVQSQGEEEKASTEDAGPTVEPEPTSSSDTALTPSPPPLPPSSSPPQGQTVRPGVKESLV
Protocol: Chinese hamster ovary (CHO) cells stably expressing RSM (μl) sodium channels were studied using the patch clamp whole cell recording technique. CHO cells were grown to confluence in Dulbecco's Modified Eagle's Medium fortified with 15% FBS, 100 U/ml penicillin and 100 μg/ml streptomycin in a humidified incubator at 37° C. and 5% CO2, with medium changed every 2–3 days. Transfections with the plasmid pZemμ1–2 were performed using the calcium phosphate coprecipitation method. After 24 hr of incubation with DNA, standard culturing conditions were resumed. After 3 days, stably transfected cells were selected with 400 μg/ml geneticin. Transfected cells were grown to confluence and then plated on 35 mm culture dishes for 24–96 hr before the experiment.
An 8900 Dagan patch clamp amplifier with a 1 GΩ 8920 Dagan headstage was used in combination with a Nikon Diaphot inverted microscope. Micromanipulators were used to place the electrode onto the cell. Electrodes were pulled to a resistance of […]. […] Peak currents were determined from these traces. DCUKA dissolved in 0.4% DMSO was added directly to the bath following seal formation and the data are expressed as the % of the initial peak current response obtained before drug addition. […]

Structure (SMILES) | IC50 [1] [µM] | IC50 [2] [µM] | effect on [3H]dizocilpine binding [3] | effect on sodium current through VSNaCs (RSM (μl) sodium channels)
COC(=O)c1cc(NC(=O)N(c2ccccc2)c2ccccc2)c2c(Cl)cc(Cl)cc2n1 [DCUK-OMe, (N,N-diphenyl)-4-ureido-5,7-dichloro-2-carboxy-quinoline methyl ester] | 5 | 25 | concentration-related decrease in [^3H]dizocilpine binding | 
O=C(O)c1cc(NC(=O)N(c2ccccc2)c2ccccc2)c2c(Cl)cc(Cl)cc2n1 [DCUKA, (N,N-diphenyl)-4-ureido-5,7-dichloro-2-carboxy-quinoline] | 22 | 76 | concentration-related decrease in [^3H]dizocilpine binding | use- and voltage-dependent inhibitor of VSNaCs
